Experimental data from PMC12865480 (Pharmaceuticals, 2025).
“And” between values parts separate entries of the source, which are not always exact repeats. Equal values may be shown once. Read-outs that look alike come from different tables or passages of the source.

Legend:
[1] = molecular target: PCP binding site of the NMDA receptor; assay: PCP binding site assay, radioligand [3H](+)-MK-801, pig brain preparations; conditions: n = 3, values without SEM mean of two experiments
[2] = molecular target: T1, ifenprodil binding site of NMDA receptors with GluN2B subunit (Homo sapiens, UniProt Q05586+Q13224); assay: biochemical
T1 construct: expressed in transfected cells; host or cells: mouse L(tk-) cells, stably transfected, expression induced with dexamethasone; membrane homogenate

σ1 receptor [3] = molecular target: T2, σ1 receptor (Cavia porcellus, UniProt Q60492); assay: biochemical
σ1 receptor [4] = molecular target: T2, σ1 receptor; conditions: earlier study; cited from earlier work
σ2 receptor = molecular target: T3, σ2 receptor (Rattus norvegicus, UniProt Q5U3Y7); assay: biochemical; format: binding; conditions: read-out: Ki ± SEM σ2
T3 sequence (Q5U3Y7 1-176): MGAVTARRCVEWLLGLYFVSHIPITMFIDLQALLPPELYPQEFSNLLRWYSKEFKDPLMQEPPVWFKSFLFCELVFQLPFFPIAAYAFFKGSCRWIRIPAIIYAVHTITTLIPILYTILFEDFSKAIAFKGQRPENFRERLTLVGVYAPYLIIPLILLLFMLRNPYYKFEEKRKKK

[5] = molecular target: PCP binding site of the NMDA receptor; conditions: earlier study; cited from earlier work
µ-opioid receptor = µ-opioid receptor (Cavia porcellus, UniProt A0ACM8Q262); assay: µ-opioid receptor binding study; conditions: read-out: inhibition of the radioligand binding, µ receptor
κ-opioid receptor = κ-opioid receptor (Cavia porcellus, UniProt P41144); assay: κ-opioid receptor binding study; conditions: read-out: inhibition of the radioligand binding, κ receptor
σ1 receptor [6] = molecular target: T2, σ1 receptor; conditions: for σ1:σ2 receptor selectivity: σ1 over σ2
[7] = after 90 min incubation with mouse liver microsomes and NADPH
physchem = conditions: pH 7.4
δ-opioid receptor = δ-opioid receptor (Rattus norvegicus, UniProt P33533); assay: δ-opioid receptor binding study; conditions: read-out: inhibition of the radioligand binding, δ receptor
[8] = system: capsaicin mouse model of neuropathic pain; conditions: dose of 0.25 mg/kg body weight; cited from earlier work

Chain of κ-opioid receptor (P41144 whole entry): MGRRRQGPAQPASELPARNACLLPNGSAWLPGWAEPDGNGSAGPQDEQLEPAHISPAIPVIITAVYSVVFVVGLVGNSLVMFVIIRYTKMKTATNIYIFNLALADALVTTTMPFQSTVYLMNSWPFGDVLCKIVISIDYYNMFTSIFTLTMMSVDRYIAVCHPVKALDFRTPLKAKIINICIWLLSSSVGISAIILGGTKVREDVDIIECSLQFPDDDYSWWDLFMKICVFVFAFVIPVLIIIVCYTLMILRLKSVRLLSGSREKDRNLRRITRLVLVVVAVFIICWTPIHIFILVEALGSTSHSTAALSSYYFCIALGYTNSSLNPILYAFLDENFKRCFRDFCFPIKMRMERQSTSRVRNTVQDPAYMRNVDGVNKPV
T1 sequence (Q13224 27-1484, other chains not shown): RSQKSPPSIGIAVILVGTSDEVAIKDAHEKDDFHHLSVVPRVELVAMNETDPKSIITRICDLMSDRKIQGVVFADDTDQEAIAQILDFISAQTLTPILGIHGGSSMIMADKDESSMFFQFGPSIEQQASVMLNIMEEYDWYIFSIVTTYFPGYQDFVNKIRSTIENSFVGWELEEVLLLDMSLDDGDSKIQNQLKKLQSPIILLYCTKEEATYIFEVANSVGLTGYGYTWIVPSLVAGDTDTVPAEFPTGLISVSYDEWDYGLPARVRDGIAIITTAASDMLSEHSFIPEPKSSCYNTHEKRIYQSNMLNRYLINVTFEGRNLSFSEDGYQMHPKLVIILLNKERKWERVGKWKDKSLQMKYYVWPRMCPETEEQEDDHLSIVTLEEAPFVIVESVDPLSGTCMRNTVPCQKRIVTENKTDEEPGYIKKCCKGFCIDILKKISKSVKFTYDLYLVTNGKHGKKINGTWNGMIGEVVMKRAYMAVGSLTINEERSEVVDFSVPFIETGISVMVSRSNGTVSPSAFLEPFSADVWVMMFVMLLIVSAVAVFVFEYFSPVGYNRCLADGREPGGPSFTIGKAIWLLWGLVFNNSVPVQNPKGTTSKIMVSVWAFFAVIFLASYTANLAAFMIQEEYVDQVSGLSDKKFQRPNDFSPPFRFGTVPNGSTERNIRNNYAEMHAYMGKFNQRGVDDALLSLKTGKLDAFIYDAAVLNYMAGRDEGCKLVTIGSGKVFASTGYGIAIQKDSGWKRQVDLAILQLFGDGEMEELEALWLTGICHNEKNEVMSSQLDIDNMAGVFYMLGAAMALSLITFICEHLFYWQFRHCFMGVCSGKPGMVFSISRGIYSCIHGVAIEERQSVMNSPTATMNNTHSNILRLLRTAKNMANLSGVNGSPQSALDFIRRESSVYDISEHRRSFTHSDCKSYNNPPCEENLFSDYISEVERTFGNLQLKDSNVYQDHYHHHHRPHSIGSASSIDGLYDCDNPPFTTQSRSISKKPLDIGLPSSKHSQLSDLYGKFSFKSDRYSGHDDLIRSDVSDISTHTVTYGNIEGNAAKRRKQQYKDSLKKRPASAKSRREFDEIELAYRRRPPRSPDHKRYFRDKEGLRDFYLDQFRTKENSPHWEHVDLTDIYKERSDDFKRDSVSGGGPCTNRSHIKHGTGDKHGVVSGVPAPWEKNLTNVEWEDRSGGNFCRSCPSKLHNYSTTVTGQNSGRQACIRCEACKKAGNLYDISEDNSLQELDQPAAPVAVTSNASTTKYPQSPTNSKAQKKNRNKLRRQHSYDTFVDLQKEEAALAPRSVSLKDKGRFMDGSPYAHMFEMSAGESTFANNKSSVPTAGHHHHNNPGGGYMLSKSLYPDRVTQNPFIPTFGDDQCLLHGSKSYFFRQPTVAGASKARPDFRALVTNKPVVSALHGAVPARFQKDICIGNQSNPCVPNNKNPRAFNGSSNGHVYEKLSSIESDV
T2 sequence (Q60492 whole entry): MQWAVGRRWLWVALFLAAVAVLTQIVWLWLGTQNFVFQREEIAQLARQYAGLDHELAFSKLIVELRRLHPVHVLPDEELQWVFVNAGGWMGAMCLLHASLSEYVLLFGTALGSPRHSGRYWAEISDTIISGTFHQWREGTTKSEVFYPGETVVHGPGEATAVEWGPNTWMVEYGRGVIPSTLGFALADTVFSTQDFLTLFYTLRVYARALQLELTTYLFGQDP
Chain of µ-opioid receptor (A0ACM8Q262 1-400): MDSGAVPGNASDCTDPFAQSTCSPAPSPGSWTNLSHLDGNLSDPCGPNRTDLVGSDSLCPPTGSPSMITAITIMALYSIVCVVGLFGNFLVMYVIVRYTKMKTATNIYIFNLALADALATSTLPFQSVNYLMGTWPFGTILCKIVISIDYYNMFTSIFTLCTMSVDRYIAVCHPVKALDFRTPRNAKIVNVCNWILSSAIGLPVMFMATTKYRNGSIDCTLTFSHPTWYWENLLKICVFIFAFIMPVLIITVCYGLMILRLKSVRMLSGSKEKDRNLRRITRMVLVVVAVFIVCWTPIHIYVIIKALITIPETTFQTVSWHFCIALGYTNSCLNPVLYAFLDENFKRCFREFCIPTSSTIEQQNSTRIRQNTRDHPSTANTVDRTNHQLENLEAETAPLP
Chain of δ-opioid receptor (P33533 whole entry): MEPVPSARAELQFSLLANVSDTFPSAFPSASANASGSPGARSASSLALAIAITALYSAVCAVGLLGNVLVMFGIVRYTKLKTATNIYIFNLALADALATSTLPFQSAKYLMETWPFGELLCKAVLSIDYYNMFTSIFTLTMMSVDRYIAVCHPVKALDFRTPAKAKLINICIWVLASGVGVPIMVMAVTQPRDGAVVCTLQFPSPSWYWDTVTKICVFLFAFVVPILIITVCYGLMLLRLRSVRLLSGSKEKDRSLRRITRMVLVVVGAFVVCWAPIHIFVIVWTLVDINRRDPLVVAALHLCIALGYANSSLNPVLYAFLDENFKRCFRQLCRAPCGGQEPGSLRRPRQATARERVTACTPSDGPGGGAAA

SMILES | Ki [1] | Ki ([2]; read-out: Ki ± SEM GluN2B) | Ki (σ1 receptor [3]; Ki ± SEM σ1) | Ki (σ2 receptor) | LLE (ligand-lipophilicity efficiency) (σ1 receptor [6]) | Metabolic Stability (5): amount of the remaining unmetabolized parent compound [7] | logD (physchem) | Ki (σ1 receptor [3]; pKi(σ1)) | also measured
NC(CCC[C@H]1CCO[C@@H](c2ccccc2)O1)c1ccccc1 (relative stereo) [24a, 1-Phenyl-4-(cis-2-phenyl-1,3-dioxan-4-yl)butan-1-amine] | > 1000 nM | 1350 nM | > 1000 nM | – | – | – | – | – | –
c1ccc(CNCCC2CCCC(c3ccccc3)O2)cc1 (stereo not shown) [compound 3] | – | – | – | – | – | – | – | – | Ki (σ1 receptor [4]): 6.4 nM
CCC1(c2ccccc2)OCCC(CCCC(N)c2ccccc2)O1 (stereo not drawn) [24b, 4-(trans-2-Ethyl-2-phenyl-1,3-dioxan-4-yl)-1-phenylbutan-1-amine] | 524 nM | 136 ± 36 nM | 427 nM | 170 nM | – | – | – | – | –
CCC1(c2ccccc2)OCCC(CCN)O1 (stereo not shown) [2a] | – | – | – | – | – | – | – | – | Ki (σ1 receptor [4]): 955 nM; Ki [5]: 19 nM
c1ccc(CNCCCC[C@H]2CCO[C@@H](c3ccccc3)O2)cc1 (relative stereo) [17a, N-Benzyl-4-(cis-2-phenyl-1,3-dioxan-4-yl)butan-1-amine] | > 1000 nM | > 1000 nM | 31 ± 4 nM | 213 nM | 6.19 | 56% and 56 ± 3% | 1.32 ± 0.04 | 30.9 nM | inhibition at 1 µM (µ-opioid receptor): 3%; inhibition at 1 µM (κ-opioid receptor): 0%; selectivity for the σ1 receptor against the ifenprodil binding site (σ1 receptor [6]): > 30 fold; selectivity for the σ1 receptor over δ-opioid receptors (σ1 receptor [6]; σ1 over δ-opioid receptor): 9 fold; σ1:σ2 receptor selectivity (σ1 receptor [6]): approx. 7 fold
NCCCC[C@H]1CCO[C@@H](c2ccccc2)O1 (relative stereo) [14a, 4-(cis-2-Phenyl-1,3-dioxan-4-yl)butan-1-amine] | > 1000 nM | > 1000 nM | > 1000 nM | > 1000 nM | – | – | – | – | IC50 (σ1 receptor [3]): > 1000 nM
CCC1(c2ccccc2)OCCC(CCCC(c2ccccc2)N2CCCC2)O1 (stereo not drawn) [27b, 1-[4-(trans-2-Ethyl-2-phenyl-1,3-dioxan-4-yl)-1-phenylbutyl]pyrrolidine] | > 1000 nM | – | 19 ± 0.6 nM | 64 ± 15 nM | 4.39 | 55 ± 5% | 3.33 ± 0.08 | 19.1 nM | Ki [2]: 63 ± 20 nM
CN(CCCC[C@H]1CCO[C@@H](c2ccccc2)O1)Cc1ccccc1 (relative stereo) [18a, N-Benzyl-N-methyl-4-(cis-2-phenyl-1,3-dioxan-4-yl)butan-1-amine] | > 1000 nM | 261 ± 54 nM | 6.3 ± 2.4 nM | 31 ± 3.1 nM | 5.71 | 48 ± 4% | 2.49 ± 0.05 | 6.31 nM | inhibition at 1 µM (µ-opioid receptor): 0%; inhibition at 1 µM (κ-opioid receptor): 0%; inhibition at 1 µM (δ-opioid receptor): 0%; selectivity for the σ1 receptor against the ifenprodil binding site (σ1 receptor [6]): > 40 fold; σ1:σ2 receptor selectivity (σ1 receptor [6]): 5 fold
c1ccc(C(CCC[C@H]2CCO[C@@H](c3ccccc3)O2)N2CCCC2)cc1 (relative stereo) [27a, 1-[1-Phenyl-4-(cis-2-phenyl-1,3-dioxan-4-yl)butyl]pyrrolidine] | > 1000 nM | 366 nM | 161 ± 59 nM | > 1000 nM | 4.59 | 76% and 76 ± 3% | 2.2 ± 0.07 | 162 nM | –
CCC1(c2ccccc2)OCCC(CCCC(NCc2ccccc2)c2ccccc2)O1 (stereo not drawn) [26b, N-Benzyl-4-(trans-2-ethyl-2-phenyl-1,3-dioxan-4-yl)-1-phenylbutan-1-amine] | > 1000 nM | 257 ± 57 nM | 88 ± 43 nM | 139 nM | – | – | – | – | –
CC[C@]1(c2ccccc2)OCC[C@H](CCCCNC)O1 (relative stereo) [16b, 4-(trans-2-Ethyl-2-phenyl-1,3-dioxan-4-yl)-N-methylbutan-1-amine] | > 1000 nM | > 1000 nM | 107 ± 5 nM | 311 nM | – | – | – | – | –
CNCCCC[C@H]1CCO[C@@H](c2ccccc2)O1 (relative stereo) [16a, N-Methyl-4-(cis-2-phenyl-1,3-dioxan-4-yl)butan-1-amine] | > 1000 nM | > 1000 nM | 842 nM | > 1000 nM | – | – | – | – | –
CCC1(c2ccccc2)OCCC(CCCC(NC)c2ccccc2)O1 (stereo not drawn) [25b, 4-(trans-2-Ethyl-2-phenyl-1,3-dioxan-4-yl)-N-methyl-1-phenylbutan-1-amine] | > 1000 nM | 190 ± 39 nM | 58 ± 8.2 nM | 255 nM | – | – | – | – | –
c1ccc(CNCCC2CCOC(c3ccccc3)O2)cc1 (stereo not shown) [compound 1] | – | – | – | – | – | – | – | – | analgesic activity [8]: 70%
CC[C@]1(c2ccccc2)OCC[C@H](CCCCN(C)Cc2ccccc2)O1 (relative stereo) [18b, N-Benzyl-4-(trans-2-ethyl-2-phenyl-1,3-dioxan-4-yl)-N-methyl-butan-1-amine] | > 1000 nM | – | 8.7 ± 3.6 nM | 24 ± 6.3 nM | 4.52 | 36% and 36 ± 1% | 3.54 ± 0.06 | 8.71 nM | Ki [2]: 20 ± 3.3 nM; inhibition at 1 µM (µ-opioid receptor): 0%; inhibition at 1 µM (κ-opioid receptor): 0%; inhibition at 1 µM (δ-opioid receptor): 0%; σ1:σ2 receptor selectivity (σ1 receptor [6]): 3 fold
CNC(CCC[C@H]1CCO[C@@H](c2ccccc2)O1)c1ccccc1 (relative stereo) [25a, N-Methyl-1-phenyl-4-(cis-2-phenyl-1,3-dioxan-4-yl)butan-1-amine] | > 1000 nM | 716 nM | 144 ± 26 nM | > 1000 nM | – | – | – | – | –
CC[C@]1(c2ccccc2)OCC[C@H](CCCCN)O1 (relative stereo) [14b, 4-(trans-2-Ethyl-2-phenyl-1,3-dioxan-4-yl)butan-1-amine] | 731 nM | > 1000 nM | > 1000 nM | > 1000 nM | – | – | – | – | IC50 (σ1 receptor [3]): > 1000 nM
c1ccc(CNCCCC2CCOC(c3ccccc3)O2)cc1 (stereo not shown) [compound 4] | – | – | – | – | – | – | – | – | Ki (σ1 receptor [4]): 164 nM
CC[C@]1(c2ccccc2)OCC[C@H](CCCCNCc2ccccc2)O1 (relative stereo) [17b, N-Benzyl-4-(trans-2-ethyl-2-phenyl-1,3-dioxan-4-yl)butan-1-amine] | 569 ± 141 nM | – | 14 ± 6.1 nM | 22 ± 1.9 nM | 5.20 | 50 ± 4% | 2.65 ± 0.04 | 14.1 nM | Ki [2]: 39 ± 13 nM; inhibition at 1 µM (κ-opioid receptor): 0%
CC[C@]1(c2ccccc2)OC[C@H]([C@@H]2CCCCN2)O1 [etoxadrol] | – | – | – | – | – | – | – | – | Ki [5]: 22 nM
CC[C@]1(c2ccccc2)OCC[C@H](CCCCN2CCCC2)O1 (relative stereo) [19b, 1-[4-(trans-2-Ethyl-2-phenyl-1,3-dioxan-4-yl)butyl]pyrrolidine] | > 1000 nM | – | 56 ± 19 nM | 57 ± 1.9 nM | 5.96 | 62 ± 2% | 1.29 ± 0.05 | 56.2 nM | Ki [2]: 67 ± 18 nM
c1ccc([C@@H]2OCC[C@H](CCCCN3CCCC3)O2)cc1 (relative stereo) [19a, 1-[4-(cis-2-Phenyl-1,3-dioxan-4-yl)butyl]pyrrolidine] | > 1000 nM | > 1000 nM | 154 ± 8 nM | > 1000 nM | 6.72 | 55% and 55 ± 2% | 0.09 ± 0.05 | 155 nM | –
CCC1(c2ccccc2)OCCC(CCNCc2ccccc2)O1 (stereo not shown) [2b] | – | – | – | – | – | – | – | – | Ki (σ1 receptor [4]): 27 nM
c1ccc(CNC(CCC[C@H]2CCO[C@@H](c3ccccc3)O2)c2ccccc2)cc1 (relative stereo) [26a, N-Benzyl-1-phenyl-4-(cis-2-phenyl-1,3-dioxan-4-yl)butan-1-amine] | > 1000 nM | > 1000 nM | 918 nM | 907 nM | – | – | – | – | –
